Like-named read-outs stand apart in the source and are kept apart here.
How the values were obtained:
[1] = Adrenal scanning/visualization in patients, comparison of 75Se compound with 19-iodocholesterol-131I; format: in vivo, humans; details: for time after injection at which scans could be taken: p.i.; for dose giving equally good adrenal scans: per kg body weight, adrenal cortex adenomas or hyperplasia
Protocol: (§1) Two patients with Cushing Syndrome were injected intravenously with 500μCi of 6β-methylselenomethyl-19-norcholest-5(10)-en-3β-ol-^75 Se formulated in normal saline stabilized with polysorbate. Repeated gamma camera scans and whole body-, urine- and blood measurements were made during a period of two weeks post injection. In one patient a maximum uptake of 17μCi in the left adrenal region was measured, the removed adrenal cortex adenoma, weight 66 g, containing 15μCi of ^75 Se.
Furthermore, the ^75 Se compound allowed scans to be taken at an earlier point of time after injection than was the case with 19-iodocholesterol-^131 I (2-3 days in contrast to 6-10 days p.i.).

[2] = cited from earlier work
[3] = cited from earlier work; remark: listed apart in the source
[4] = cited from earlier work; remark: listed apart in the source
[5] = Tissue distribution of selenium-75-labelled sterols in rats, sixth day post-injection; format: in vivo, rats of the C.F.Y. strain; details: tail vein, dose: 1, 7: 40 μCi, 6: 50 μCi, 3: 30 μCi, 4: 1.5 μCi, 5: 10 μCi, 8: 6.3 μCi; for % dose kg./g. in Ovaries: female rats; for % dose kg./g. in Adrenals / % dose kg./g. in Blood / % dose kg./g. in Kidneys / % dose kg./g. in Liver / % dose kg./g. in Muscle: male and female rats; for % dose kg./g. in Testes: male rats; for Concentration Ratio; Adrenals: Kidneys / Concentration Ratio; Adrenals: Liver / Concentration Ratio; Adrenals: Muscle / Concentration Ratio; Adrenals: Ovaries / Concentration Ratio; Adrenals: Testes / Concentration Ratio; Adrenals: Blood: rats; for Concentration Ratio; Adrenals: Blood: 8640 min
Protocol: The tissue distribution and target to non-target concentration ratios for seven compounds were studied in male and female rats (150-180 g) of the C.F.Y. strain. Each compound (in a volume of 0.3ml) was injected via the tail vein into two male and two female rats. The animals were then housed in separate metabolism cages prior to sacrifice and dissecting on the sixth day post-injection.

[6] = Tissue distribution in a female dog, 6th day post-injection; format: in vivo
Protocol: 250μCi of 6β-methylselenomethyl-19-norcholest-5(10)-en-[…]-^75 Se was intravenously injected into a female dog (13.7 kg). The dog was housed in a metabolism cage for the daily collection of urine and faeces. On the 6th day post-injection the animal was sacrificed (i.v. sodium pento-barbitone)and tissue and organ samples collected. The weighed samples were then assayed for radioactive content.
The resulting tissue distribution (expressed in terms of % dose kg/g) is tabulated below: […]

[7] = Adrenal uptake of 75Se in patients with Cushing Syndrome (gamma camera scans); format: in vivo, humans
Protocol: as §1

[8] = compared with 19-iodocholesterol-131I; cited from earlier work
[9] = 250μCi intravenous, female dog, 6th day
[10] = 250μCi intravenous, female dog, daily collection to 6th day

For `CC(C)CCC[C@@H](C)[C@H]1CC[C@H]2[C@@H]3CC=C4C[C@@H](O)CC[C@]4(C[131I])[C@H]3CC[C@]12C` [19-iodocholesterol-^131 I], the “time after injection at which scans could be taken” value [1] is given as 6 to 10 days, the “dose giving equally good adrenal scans” value [1] is given as 10-20 μCi/kg and the “concentration in rat adrenal tissue” value [2] is given as “concentrate in the adrenal glands”. The “concentration in adrenal glands of dogs” value [3] was “concentrate in the adrenal glands” and the “concentration in / uptake into human adrenal glands” value [4] was “concentrate in the adrenal glands”.
With `C[75Se]C[C@@H]1C[C@@H]2[C@H](CC[C@]3(C)[C@@H]([C@H](C)CCCC(C)C)CC[C@@H]23)C2=C1C[C@@H](O)CC2` [Example 1, 6β-methylselenomethyl-19-norcholest-5(10)-en-3β-ol-^75 Se] the “% dose kg./g. in Ovaries” value [5] was 2.356 % dose kg./g, the “% dose kg./g. in Adrenals” value [5] was 9.885 % dose kg./g and the “% dose kg./g. in Blood” value [5] was 0.024 % dose kg./g. The “% dose kg./g. in Kidneys” value [5] was 0.116 % dose kg./g, the “% dose kg./g. in Liver” value [5] was 0.054 % dose kg./g and the “% dose kg./g. in Muscle” value [5] was 0.023 % dose kg./g. For the same compound, the “% dose kg./g. in Testes” value [5] was 0.044 % dose kg./g, the “Concentration Ratio; Adrenals: Kidneys” value [5] was 91.9 and the “Concentration Ratio; Adrenals: Liver” value [5] was 163.9. The “Concentration Ratio; Adrenals: Muscle” value [5] was 436.7, the “Concentration Ratio; Adrenals: Ovaries” value [5] was 4.5 and the “Concentration Ratio; Adrenals: Testes” value [5] was 211.9. For the same compound, the “Concentration Ratio; Adrenals: Blood” value [5] was 433.1, the “quality of adrenal scans compared with 19-iodocholesterol-131I” value ([1]; comparable cases with adrenal cortex adenomas or hyperplasia, smaller dose) was “equally good adrenal scans” and the “visualization of adrenal glands and detection of adrenal cortex adenomas” value ([1]; humans) was “enabling their visualization and the detection of adrenal cortex adenomas”. For the same compound, the “time after injection at which scans could be taken” value [1] was 2 to 3 days, the “dose giving equally good adrenal scans” value [1] was 7 μCi/kg and the “% dose kg/g, Adrenals” value [6, 9] was 7.240 % dose kg/g. For the same compound, the “% dose kg/g, Bile” value [6, 9] was 0.485 % dose kg/g, the “% dose kg/g, Blood” value [6, 9] was 0.066 % dose kg/g and the “% dose kg/g, Kidneys” value [6, 9] was 0.175 % dose kg/g. For the same compound, the “% dose kg/g, Liver” value [6, 9] was 0.143 % dose kg/g, the “% dose kg/g, Lungs” value [6, 9] was 0.164 % dose kg/g and the “% dose kg/g, Muscle” value [6, 9] was 0.042 % dose kg/g. The “% dose kg/g, Ovaries” value [6, 9] was 1.571 % dose kg/g, the “% dose kg/g, Spleen” value [6, 9] was 0.083 % dose kg/g and the “% dose kg/g, adrenal cortex” value [6, 9] was 9.925 % dose kg/g. For the same compound, the “% of dose, Adrenals” value [6, 9] was 0.622 % of dose, the “% of dose, Blood” value [6, 9] was 5.989 % of dose and the “% of dose, Kidneys” value [6, 9] was 0.712 % of dose. For the same compound, the “% of dose, Liver” value [6, 9] was 3.894 % of dose, the “% of dose, Lungs” value [6, 9] was 1.136 % of dose and the “% of dose, Ovaries” value [6, 9] was 0.303 % of dose. The “% of dose, Spleen” value [6, 9] was 0.528 % of dose, the “% of dose, Total Faeces” value [6, 10] was 27.691 % of dose and the “% of dose, Total Urine” value [6, 10] was 1.953 % of dose. For the same compound, the “concentration in the adrenal cortex” value ([6]; dogs) was “concentrates in the adrenal cortex”, the “75Se uptake per gram of tissue in the adrenal adenoma” value ([7]; compared with 19-iodocholesterol-131I in five other adrenal cortex adenomas) was “higher than that of 19-iodocholesterol-^131 I” and the “concentration in the adrenal glands” value ([7]; humans) was “concentrate in the adrenal glands of humans”. For the same compound, the “maximum uptake in the left adrenal region” value ([7]; one patient with Cushing Syndrome, 500μCi intravenous, two weeks of scans) was 17 μCi, the “75Se uptake in each of both adrenal regions” value ([7]; other patient with Cushing Syndrome, 500μCi intravenous) was 3 μCi and the “75Se contained in removed adrenal cortex adenoma” value ([7]; same patient, adenoma weight 66 g, 500μCi intravenous) was 15 μCi.
For `CC(C)CCC[C@@H](C)[C@H]1CC[C@H]2[C@@H]3C[C@@H](C[131I])C4=C(CC[C@H](O)C4)[C@H]3CC[C@]12C` [^131 I-iodinated rearranged product, 6β-iodomethyl-19-norcholest-5(10)-en-3β-ol], the “effectiveness as adrenal scanning agent” value [8] is listed as “far more effective adrenal scanning agent than 19-iodocholesterol-^131 I”.
In the case of `C[75Se]C[C@]12CC[C@H](O)CC1=CC[C@@H]1[C@@H]2CC[C@]2(C)[C@@H]([C@H](C)CCCC(C)C)CC[C@@H]12` [19-methylselenocholesterol], the “concentration in rat adrenal tissue” value [2] is given as “concentrated strongly in rat adrenal tissue”, the “concentration in / uptake into human adrenal glands” value [4] is given as “poor” and the “concentration in the adrenal cortex” value ([4]; human) is given as “appears not to be concentrated in the adrenal cortex”. For the same compound, the “uptake into pheochromocytomas of human adrenal medullary tissue” value ([4]; some instances) was “some instances have been cited of its uptake into pheochromocytomas”.
For `CC(C)CCC[C@@H](C)[C@H]1CC[C@H]2[C@@H]3C[C@@H](C[75Se](C)=O)C4=C(CC[C@H](O)C4)[C@H]3CC[C@]12C` (stereo partly drawn) [Example 7, 6β-methylselenomethyl-19-norcholest-5(10)-en-3β-olselenoxide-^75 Se], the “% dose kg./g. in Ovaries” value [5] was 0.817 % dose kg./g, the “% dose kg./g. in Adrenals” value [5] was 4.284 % dose kg./g and the “% dose kg./g. in Blood” value [5] was 0.022 % dose kg./g. For the same compound, the “% dose kg./g. in Kidneys” value [5] was 0.087 % dose kg./g, the “% dose kg./g. in Liver” value [5] was 0.091 % dose kg./g and the “% dose kg./g. in Muscle” value [5] was 0.016 % dose kg./g. For the same compound, the “% dose kg./g. in Testes” value [5] was 0.046 % dose kg./g, the “Concentration Ratio; Adrenals: Kidneys” value [5] was 49.5 and the “Concentration Ratio; Adrenals: Liver” value [5] was 48.3. For the same compound, the “Concentration Ratio; Adrenals: Muscle” value [5] was 274, the “Concentration Ratio; Adrenals: Ovaries” value [5] was 5.1 and the “Concentration Ratio; Adrenals: Testes” value [5] was 95.2. The “Concentration Ratio; Adrenals: Blood” value [5] was 202.
In the case of `C[75Se]C[C@@H]1C[C@@H]2[C@H](CC[C@]3(C)[C@@H]([C@H](C)CCCC(C)C)CC[C@@H]23)C2=C1C[C@@H](OC(C)=O)CC2` [Example 6, 6β-methylselenomethyl-19-norcholest-5(10)-en-3β-ol-acetate-^75 Se], the “% dose kg./g. in Ovaries” value [5] is reported as 3.232 % dose kg./g, the “% dose kg./g. in Adrenals” value [5] is reported as 12.561 % dose kg./g and the “% dose kg./g. in Blood” value [5] is reported as 0.025 % dose kg./g. The “% dose kg./g. in Kidneys” value [5] was 0.108 % dose kg./g, the “% dose kg./g. in Liver” value [5] was 0.074 % dose kg./g and the “% dose kg./g. in Muscle” value [5] was 0.022 % dose kg./g. For the same compound, the “% dose kg./g. in Testes” value [5] was 0.041 % dose kg./g, the “Concentration Ratio; Adrenals: Kidneys” value [5] was 116.0 and the “Concentration Ratio; Adrenals: Liver” value [5] was 161.1. The “Concentration Ratio; Adrenals: Muscle” value [5] was 536.3, the “Concentration Ratio; Adrenals: Ovaries” value [5] was 5.7 and the “Concentration Ratio; Adrenals: Testes” value [5] was 166.4. The “Concentration Ratio; Adrenals: Blood” value [5] was 469.2.
